Reference: ChEMBL document CHEMBL1201862, “PubChem BioAssay data set” (2004)
Active and inactive are the calls of the source.

Key:
Cytochrome P450 2C9 = Cytochrome P450 2C9 (Homo sapiens, UniProt P11712)
Cytochrome P450 3A4 = Cytochrome P450 3A4 (Homo sapiens, UniProt P08684);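 also: CYP3A4 tested as one member of a cytochrome P450 panel screen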
[1] = biological target: G-protein coupled receptor 55 (Homo sapiens, UniProt Q9Y2T6); assay: inhibition of LPI-stimulated GPR55 beta-arrestin translocation – imaging, U2OS, beta-arrestin-GFP, LPI agonist, primary screen (AID 2013); type: functional;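 also: antagonist potency measured as reduced agonist-driven arrestin aggregation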
[2] = Luminescence Cell-Based Dose Retest to Confirm Inhibitors of Cancer Stem Cells. [Related pubchem assays (depositor defined):AID2717, AID2721]; type: functional; details: Homo sapiens
[3] = biological target: T1, High affinity choline transporter 1 (Homo sapiens, UniProt Q9GZV3); assay: human choline transporter blockers, potency – cell-based, 5-point CRC, membrane potential dye, dose response (AID 504840); type: functional
T1 sequence (Q9GZV3 whole entry): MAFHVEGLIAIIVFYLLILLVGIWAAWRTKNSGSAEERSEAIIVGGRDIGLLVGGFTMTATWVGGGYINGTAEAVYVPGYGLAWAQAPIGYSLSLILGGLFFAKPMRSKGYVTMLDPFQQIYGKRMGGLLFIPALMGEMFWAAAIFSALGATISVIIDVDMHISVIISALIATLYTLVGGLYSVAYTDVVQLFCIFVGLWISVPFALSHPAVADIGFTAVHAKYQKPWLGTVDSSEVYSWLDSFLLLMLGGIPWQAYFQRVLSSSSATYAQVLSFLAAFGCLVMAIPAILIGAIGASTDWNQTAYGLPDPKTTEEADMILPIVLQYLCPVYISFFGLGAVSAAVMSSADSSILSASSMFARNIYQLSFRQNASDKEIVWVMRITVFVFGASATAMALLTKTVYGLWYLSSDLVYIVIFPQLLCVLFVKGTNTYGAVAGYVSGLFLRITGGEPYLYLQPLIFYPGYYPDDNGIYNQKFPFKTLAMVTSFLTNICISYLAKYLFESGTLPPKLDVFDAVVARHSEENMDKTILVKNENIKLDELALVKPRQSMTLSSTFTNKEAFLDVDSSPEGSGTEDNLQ

Protein RecA = biological target: T2, Protein RecA (Mycobacterium tuberculosis, UniProt P9WHJ3); assay: Fluorescence Cell-Free Homogeneous Dose Retest to Identify Inhibitors of RecA-Intein Splicing Activity. [Related pubchem assays (depositor defined):AID2097, AID2223, AID489010, AID492950]; type: functional
T2 sequence (P9WHJ3 whole entry): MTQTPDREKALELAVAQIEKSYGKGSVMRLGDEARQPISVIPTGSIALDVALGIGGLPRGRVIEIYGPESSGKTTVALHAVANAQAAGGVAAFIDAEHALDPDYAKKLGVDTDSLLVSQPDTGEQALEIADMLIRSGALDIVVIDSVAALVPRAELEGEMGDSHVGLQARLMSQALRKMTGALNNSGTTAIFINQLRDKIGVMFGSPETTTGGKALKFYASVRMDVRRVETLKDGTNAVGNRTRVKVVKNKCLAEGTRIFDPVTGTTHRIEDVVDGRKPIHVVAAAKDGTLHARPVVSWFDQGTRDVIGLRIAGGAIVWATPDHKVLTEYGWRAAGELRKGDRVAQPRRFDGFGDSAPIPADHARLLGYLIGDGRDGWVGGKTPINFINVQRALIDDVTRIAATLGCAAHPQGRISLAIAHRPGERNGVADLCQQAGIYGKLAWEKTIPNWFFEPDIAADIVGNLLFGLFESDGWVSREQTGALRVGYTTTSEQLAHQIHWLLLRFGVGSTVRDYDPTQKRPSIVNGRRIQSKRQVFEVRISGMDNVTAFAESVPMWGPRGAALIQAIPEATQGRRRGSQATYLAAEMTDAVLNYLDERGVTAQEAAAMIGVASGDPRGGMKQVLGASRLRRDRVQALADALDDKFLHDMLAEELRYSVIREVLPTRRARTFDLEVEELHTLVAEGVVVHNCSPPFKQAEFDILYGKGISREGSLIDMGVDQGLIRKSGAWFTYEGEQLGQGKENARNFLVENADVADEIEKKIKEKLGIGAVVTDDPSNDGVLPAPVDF

[4] = NIH3T3 cell viability loss – ATP luminescence, mouse fibroblasts, counter-screen, dose response (AID 2010); type: functional, cell-based;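 also: cells exposed to compound for about 90 hours before reading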
[5] = Trypanosoma cruzi growth suppression in host cells – NIH3T3 host cells, beta-gal luminescence, confirmation (AID 2044); type: functional, cell-based;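 also: intracellular parasites grown in NIH/3T3 mouse fibroblasts as host cells; luminescent beta-galactosidase reporter signal from transgenic T. cruzi replicating inside host cells; inhibitors lower the luminescence signal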
[6] = biological target: T3, Replicative DNA helicase DnaB (Mycobacterium tuberculosis, UniProt P9WMR3); assay: DnaB intein splicing inhibitors, dose response, biochemical, cell-free fluorescence (AID 449749); type: functional
T3 sequence (P9WMR3 whole entry): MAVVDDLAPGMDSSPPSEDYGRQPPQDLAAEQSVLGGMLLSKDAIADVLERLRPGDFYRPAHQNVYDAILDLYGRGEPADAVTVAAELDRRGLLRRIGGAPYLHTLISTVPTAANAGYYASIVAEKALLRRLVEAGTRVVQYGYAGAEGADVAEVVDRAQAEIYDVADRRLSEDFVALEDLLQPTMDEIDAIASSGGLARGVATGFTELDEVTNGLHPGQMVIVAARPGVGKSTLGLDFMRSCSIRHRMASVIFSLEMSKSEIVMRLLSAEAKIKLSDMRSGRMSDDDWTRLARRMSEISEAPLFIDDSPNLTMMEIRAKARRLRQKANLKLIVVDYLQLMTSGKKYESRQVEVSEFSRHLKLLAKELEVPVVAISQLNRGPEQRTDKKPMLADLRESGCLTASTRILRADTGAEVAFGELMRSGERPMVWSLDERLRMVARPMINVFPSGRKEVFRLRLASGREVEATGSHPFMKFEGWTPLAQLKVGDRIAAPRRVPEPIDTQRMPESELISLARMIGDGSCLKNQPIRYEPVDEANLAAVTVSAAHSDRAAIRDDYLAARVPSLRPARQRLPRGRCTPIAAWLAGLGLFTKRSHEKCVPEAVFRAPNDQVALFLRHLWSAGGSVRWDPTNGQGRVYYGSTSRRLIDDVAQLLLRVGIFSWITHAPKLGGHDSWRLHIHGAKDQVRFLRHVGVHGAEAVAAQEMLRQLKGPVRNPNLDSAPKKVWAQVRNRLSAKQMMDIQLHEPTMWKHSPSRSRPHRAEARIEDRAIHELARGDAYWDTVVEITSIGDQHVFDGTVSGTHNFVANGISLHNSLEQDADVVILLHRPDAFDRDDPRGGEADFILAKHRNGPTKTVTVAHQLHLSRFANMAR

[7] = A cytotoxicity screen of small molecule inhibitors of the PhoP region in Salmonella typhi identified in the primary screen. [Related pubchem assays: 1850, 1864, 1985 ]; type: functional
Genome polyprotein = Genome polyprotein (dengue virus type 2, UniProt P29990); assay: flavivirus cap methylation enzyme inhibition – biochemical, confirmation dose response, primary screen (AID 588689); type: functional
HeLa = assay: ATP-based viability loss in HeLa cells – cell-based, CellTiter-Glo luminescence, cherry-pick samples, cytotoxicity control for MITF activator project, dose response (AID 540259); type: functional; details: Homo sapiens
[8] = fluconazole-exposed Candida albicans growth modulators – fluorescence, retest, confirmation (AID 2467); type: functional, cell-based
Streptococcus = assay: GAS UMAA2166 growth inhibition – luminescence, BacTiterGlo, counter-screen for streptokinase expression inhibitor project, dose response (AID 1915); type: functional, organism-based;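 also: potency for reduction of bacterial viability or growth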
[9] = NIH-3T3 fibroblast cytotoxicity, dose response, cytotoxicity control, cell-based, fluorescence, Alamar Blue, secondary assay (AID 2327); type: functional;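 also: NIH-3T3 mouse fibroblasts cultured with fluconazole at 8 µg/mL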
[10] = biological target: T4, Serine/threonine-protein phosphatase (Candida dubliniensis (strain CD36 / CBS 7987 / NCPF 3949 / NRRLY-17841) (Yeast), UniProt B9W6M3); assay: blockers of CaCl2-induced CDRE-lacZ signaling – S. cerevisiae, luminescence, secondary, dose response (AID 2388); type: functional, cell-based;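 also: yeast reporter cells carrying a calcineurin-responsive lacZ construct stimulated with calcium chloride; luminescent beta-galactosidase reporter signal in whole cells rather than isolated phosphatase activity; potency for inhibition where a drop in reporter signal means calcineurin blockade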
T4 sequence (B9W6M3 whole entry): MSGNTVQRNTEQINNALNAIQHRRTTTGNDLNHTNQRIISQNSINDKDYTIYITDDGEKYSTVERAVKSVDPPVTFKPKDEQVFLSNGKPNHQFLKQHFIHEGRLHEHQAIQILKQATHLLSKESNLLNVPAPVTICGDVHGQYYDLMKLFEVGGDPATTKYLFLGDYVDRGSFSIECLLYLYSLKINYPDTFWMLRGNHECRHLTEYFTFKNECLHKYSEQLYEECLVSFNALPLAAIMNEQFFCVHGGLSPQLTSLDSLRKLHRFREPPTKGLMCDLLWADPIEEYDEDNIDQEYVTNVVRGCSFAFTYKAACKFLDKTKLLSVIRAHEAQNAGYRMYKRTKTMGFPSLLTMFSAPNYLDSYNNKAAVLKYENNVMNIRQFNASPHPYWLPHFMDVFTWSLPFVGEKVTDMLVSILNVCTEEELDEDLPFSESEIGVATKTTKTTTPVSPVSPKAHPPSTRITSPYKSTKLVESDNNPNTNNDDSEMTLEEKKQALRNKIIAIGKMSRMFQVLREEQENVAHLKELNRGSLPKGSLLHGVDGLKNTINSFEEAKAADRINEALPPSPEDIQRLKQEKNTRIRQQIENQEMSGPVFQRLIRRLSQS

[11] = biological target: ATP-dependent molecular chaperone HSP82 (Candida albicans (strain WO-1) (Yeast), UniProt C4YTQ8); assay: steroid-induced GRE reporter decrease in yeast – S. cerevisiae, luminescence, Hsp90 inhibitor project, dose response (AID 2400); type: functional, cell-based;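 also: beta-galactosidase luminescence from glucocorticoid response element reporter as proxy for Hsp90 function; inhibitor potency where signal loss means Hsp90 inhibition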
[12] = test system: Streptococcus sp. 'group A'; assay: Streptococcus pyogenes SK(-)GAS viability under kanamycin – luminescence, BacTiterGlo, confirmation, counter-screen for streptokinase expression inhibitor project, dose response (AID 1900); type: functional, organism-based
Cytochrome P450 1A2 = biological target: T5, Cytochrome P450 1A2 (Homo sapiens, UniProt P05177);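 also: PubChem cytochrome P450 panel assay, CYP1A2 panel member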
T5 sequence (P05177 whole entry): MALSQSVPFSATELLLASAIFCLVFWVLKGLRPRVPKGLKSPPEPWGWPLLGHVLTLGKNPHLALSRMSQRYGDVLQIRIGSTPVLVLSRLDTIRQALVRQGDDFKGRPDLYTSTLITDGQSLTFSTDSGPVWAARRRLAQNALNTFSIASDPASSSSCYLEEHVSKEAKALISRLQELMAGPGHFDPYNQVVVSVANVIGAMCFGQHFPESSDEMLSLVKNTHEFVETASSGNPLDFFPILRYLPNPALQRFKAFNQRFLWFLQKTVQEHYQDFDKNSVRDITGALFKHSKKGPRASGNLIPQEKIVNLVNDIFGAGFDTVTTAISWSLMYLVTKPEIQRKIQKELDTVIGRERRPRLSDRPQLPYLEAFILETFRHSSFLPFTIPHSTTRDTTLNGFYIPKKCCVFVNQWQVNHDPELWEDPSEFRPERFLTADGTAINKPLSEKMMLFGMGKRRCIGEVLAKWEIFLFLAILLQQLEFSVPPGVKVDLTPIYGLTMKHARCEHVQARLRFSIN

[13] = biological target: Voltage-dependent T-type calcium channel subunit alpha-1H (Homo sapiens, UniProt O95180); type: functional;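 also: channel activity triggered by adding a high calcium stimulation buffer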
Cytochrome P450 2C19 = Cytochrome P450 2C19 (Homo sapiens, UniProt P33261); assay: Cytochrome panel assay with activity outcomes. Panel member name: p450-cyp2c19 Compounds with AC50 equal or less than 10 uM are considered active; type: functional; details: read-out: AC50
Sequence of Cytochrome P450 2C19 (P33261 whole entry): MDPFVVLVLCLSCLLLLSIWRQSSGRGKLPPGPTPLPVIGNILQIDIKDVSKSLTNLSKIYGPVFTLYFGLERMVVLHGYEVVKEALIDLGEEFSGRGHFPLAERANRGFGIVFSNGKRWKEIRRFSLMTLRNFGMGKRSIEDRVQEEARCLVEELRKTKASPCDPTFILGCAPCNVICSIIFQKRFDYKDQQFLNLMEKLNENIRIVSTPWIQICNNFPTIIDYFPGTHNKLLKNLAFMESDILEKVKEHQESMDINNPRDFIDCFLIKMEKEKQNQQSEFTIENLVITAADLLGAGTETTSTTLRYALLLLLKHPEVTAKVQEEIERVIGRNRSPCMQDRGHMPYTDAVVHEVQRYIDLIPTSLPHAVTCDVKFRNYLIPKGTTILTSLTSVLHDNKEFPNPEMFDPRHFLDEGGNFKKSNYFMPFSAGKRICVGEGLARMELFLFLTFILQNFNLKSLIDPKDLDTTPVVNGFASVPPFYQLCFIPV

Sequence of Cytochrome P450 2C9 (P11712 whole entry): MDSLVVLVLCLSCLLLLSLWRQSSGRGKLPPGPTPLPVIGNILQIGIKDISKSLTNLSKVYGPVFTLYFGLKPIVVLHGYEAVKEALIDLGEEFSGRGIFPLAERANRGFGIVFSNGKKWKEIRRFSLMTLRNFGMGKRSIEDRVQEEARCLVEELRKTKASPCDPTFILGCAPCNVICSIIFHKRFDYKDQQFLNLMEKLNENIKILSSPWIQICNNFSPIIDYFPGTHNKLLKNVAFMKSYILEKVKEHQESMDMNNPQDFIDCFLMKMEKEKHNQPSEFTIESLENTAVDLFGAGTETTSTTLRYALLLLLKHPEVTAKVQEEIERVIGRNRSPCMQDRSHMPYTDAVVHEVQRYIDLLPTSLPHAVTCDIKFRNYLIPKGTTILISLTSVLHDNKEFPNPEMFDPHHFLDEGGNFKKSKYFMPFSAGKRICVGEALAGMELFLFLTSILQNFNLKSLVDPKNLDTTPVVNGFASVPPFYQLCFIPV
Sequence of G-protein coupled receptor 55 (Q9Y2T6 whole entry): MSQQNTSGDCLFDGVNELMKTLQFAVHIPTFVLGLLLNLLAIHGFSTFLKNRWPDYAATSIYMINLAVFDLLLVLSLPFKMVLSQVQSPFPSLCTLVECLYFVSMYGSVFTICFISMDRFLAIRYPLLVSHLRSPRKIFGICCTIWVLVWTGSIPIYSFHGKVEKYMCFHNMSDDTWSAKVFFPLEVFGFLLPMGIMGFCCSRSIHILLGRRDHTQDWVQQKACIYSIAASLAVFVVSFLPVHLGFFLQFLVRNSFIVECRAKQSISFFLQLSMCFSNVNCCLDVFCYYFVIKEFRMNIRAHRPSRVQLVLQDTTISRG
Sequence of Voltage-dependent T-type calcium channel subunit alpha-1H (O95180 whole entry): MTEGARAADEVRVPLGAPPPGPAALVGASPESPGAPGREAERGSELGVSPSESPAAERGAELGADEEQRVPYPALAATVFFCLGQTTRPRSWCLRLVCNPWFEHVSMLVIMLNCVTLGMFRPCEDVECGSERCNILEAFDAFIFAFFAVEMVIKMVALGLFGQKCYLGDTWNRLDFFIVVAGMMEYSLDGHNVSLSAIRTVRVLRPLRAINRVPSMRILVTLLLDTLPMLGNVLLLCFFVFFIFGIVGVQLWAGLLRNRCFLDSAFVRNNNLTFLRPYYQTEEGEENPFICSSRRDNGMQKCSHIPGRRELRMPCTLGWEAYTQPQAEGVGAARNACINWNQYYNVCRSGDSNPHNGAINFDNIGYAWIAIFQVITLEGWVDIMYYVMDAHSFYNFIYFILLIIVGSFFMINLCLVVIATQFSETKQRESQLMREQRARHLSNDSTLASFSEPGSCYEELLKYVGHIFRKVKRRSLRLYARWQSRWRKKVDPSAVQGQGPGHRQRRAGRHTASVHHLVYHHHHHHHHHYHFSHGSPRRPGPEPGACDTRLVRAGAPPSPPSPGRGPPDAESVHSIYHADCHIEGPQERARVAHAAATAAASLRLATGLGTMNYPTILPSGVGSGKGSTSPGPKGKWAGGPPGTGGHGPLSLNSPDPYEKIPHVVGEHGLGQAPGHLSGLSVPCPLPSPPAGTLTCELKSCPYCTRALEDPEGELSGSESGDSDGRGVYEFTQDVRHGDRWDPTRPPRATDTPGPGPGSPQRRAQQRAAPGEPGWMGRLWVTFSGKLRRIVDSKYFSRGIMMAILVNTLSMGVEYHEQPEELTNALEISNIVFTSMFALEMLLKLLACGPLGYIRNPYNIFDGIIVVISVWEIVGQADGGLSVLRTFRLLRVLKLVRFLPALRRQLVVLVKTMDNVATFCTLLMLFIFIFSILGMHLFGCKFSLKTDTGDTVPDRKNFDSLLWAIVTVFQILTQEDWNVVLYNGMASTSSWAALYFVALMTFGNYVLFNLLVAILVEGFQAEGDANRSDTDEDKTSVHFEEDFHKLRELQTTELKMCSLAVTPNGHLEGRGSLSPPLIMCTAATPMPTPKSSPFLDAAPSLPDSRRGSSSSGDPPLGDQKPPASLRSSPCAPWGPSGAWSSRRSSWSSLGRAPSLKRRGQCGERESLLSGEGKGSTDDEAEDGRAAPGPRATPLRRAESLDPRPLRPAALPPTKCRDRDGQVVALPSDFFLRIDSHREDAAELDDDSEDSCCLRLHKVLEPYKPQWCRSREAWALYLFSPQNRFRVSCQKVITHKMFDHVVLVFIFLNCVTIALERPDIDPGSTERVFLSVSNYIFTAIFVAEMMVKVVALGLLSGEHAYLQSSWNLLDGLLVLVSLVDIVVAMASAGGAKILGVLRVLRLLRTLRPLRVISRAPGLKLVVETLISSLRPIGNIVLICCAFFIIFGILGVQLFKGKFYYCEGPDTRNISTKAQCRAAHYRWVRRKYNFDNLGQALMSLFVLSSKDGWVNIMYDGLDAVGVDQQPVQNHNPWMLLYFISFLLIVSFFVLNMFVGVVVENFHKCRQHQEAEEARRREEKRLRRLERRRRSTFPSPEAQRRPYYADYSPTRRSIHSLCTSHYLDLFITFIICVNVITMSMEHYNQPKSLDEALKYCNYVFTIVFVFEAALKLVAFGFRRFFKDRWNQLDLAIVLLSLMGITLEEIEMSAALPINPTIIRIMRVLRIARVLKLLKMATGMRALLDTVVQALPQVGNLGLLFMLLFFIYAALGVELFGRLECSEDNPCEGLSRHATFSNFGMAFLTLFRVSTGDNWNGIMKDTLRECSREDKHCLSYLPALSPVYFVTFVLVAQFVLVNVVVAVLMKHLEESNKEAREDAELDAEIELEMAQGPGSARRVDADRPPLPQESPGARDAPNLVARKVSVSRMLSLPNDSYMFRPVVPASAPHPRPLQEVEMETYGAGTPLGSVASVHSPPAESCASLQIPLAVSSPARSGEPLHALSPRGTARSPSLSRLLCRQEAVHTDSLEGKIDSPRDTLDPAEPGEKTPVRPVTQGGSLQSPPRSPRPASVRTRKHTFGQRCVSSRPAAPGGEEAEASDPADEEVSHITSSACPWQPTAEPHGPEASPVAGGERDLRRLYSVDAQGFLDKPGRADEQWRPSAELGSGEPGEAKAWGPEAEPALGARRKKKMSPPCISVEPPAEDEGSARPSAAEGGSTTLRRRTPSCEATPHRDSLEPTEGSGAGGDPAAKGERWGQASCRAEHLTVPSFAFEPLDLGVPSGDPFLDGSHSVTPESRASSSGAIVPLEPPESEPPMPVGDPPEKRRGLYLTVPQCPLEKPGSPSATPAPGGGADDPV
Sequence of Cytochrome P450 3A4 (P08684 whole entry): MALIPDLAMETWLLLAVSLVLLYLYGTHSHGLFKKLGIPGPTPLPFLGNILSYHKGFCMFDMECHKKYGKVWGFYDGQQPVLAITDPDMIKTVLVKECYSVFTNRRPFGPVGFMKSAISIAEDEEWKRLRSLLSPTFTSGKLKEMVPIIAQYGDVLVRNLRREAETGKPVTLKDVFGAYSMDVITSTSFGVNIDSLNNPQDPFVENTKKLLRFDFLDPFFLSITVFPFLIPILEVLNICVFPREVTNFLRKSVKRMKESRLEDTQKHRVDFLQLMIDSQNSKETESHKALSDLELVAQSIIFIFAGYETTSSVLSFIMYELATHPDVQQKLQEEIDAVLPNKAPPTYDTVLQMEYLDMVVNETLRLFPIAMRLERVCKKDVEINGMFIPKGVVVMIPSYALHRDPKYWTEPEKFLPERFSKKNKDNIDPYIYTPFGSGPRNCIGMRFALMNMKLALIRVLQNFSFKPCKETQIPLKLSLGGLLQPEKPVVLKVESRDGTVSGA
Sequence of Genome polyprotein (P29990 2492-3391 limits assumed): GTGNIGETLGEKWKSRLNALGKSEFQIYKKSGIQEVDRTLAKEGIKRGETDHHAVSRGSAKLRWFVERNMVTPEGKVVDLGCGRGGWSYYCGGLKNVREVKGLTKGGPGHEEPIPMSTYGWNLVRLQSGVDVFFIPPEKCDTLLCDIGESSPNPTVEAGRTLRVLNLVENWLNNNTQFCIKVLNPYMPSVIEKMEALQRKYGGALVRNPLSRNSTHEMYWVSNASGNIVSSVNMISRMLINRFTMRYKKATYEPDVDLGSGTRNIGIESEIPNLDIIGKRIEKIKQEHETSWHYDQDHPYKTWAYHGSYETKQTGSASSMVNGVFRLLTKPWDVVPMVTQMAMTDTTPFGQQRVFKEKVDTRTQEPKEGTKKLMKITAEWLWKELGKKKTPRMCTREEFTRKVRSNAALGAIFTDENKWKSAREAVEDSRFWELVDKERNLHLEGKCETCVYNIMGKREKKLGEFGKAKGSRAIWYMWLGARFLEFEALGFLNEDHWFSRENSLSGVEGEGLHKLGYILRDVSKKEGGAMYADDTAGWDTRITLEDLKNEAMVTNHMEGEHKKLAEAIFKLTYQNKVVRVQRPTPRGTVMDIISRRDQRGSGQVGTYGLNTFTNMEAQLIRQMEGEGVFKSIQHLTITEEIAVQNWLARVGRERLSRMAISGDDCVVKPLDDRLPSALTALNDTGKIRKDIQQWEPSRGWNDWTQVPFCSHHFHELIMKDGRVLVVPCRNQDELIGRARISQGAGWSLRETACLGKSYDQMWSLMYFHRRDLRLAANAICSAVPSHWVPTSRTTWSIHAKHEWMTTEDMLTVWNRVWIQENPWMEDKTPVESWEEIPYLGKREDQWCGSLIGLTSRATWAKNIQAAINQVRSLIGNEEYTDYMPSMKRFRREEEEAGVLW

CN(C)c1ncc2nc(-c3cc(F)cc(F)c3)c(=O)n(Cc3ccc(F)cc3)c2n1
AC50 (Cytochrome P450 2C9): inconclusive
AC50 (Cytochrome P450 3A4): 31.6 µM (inconclusive)

CSc1nnc(-c2sccc2OCc2ccccc2)n1C
IC50 [1]: 2.71 µM (active)

N#Cc1c(/N=C/N2CCCC2)oc(-c2ccccc2)c1-c1ccccc1
IC50 [1]: 0.558 µM (active)
AC50 [2]: 1.67 µM (active)

O=C(NCCCN1CCOCC1)c1ccc2c(=O)n(-c3ccc(F)c(Cl)c3)c(=S)[nH]c2c1
IC50 [3]: 11.5 µM (active)

CC(C)(C)n1nnnc1C(c1cccs1)N(Cc1cccnc1)Cc1ccccc1Cl (centres undefined)
EC50 (Protein RecA): 59 µM (active)
IC50 [1]: 3.57 µM (active)
EC50 [4]: 15.1 µM (active)
EC50 [5]: 0.684 µM (active)
AC50 [6]: > 120 µM (inactive)

Cc1[nH]n(-c2ccccc2)c(=O)c1C(c1cccc([N+](=O)[O-])c1O)c1c(C)[nH]n(-c2ccccc2)c1=O
EC50 [7]: > 50 µM (active)
IC50 (Genome polyprotein): 31.6 µM (active)
EC50 (Protein RecA): 0.931 µM (active)
AC50 [6]: 1.15 µM (active)

CNC(=O)c1ccc(-c2cc3onc(-c4ccccc4)c3c(=O)n2C)cc1
AC50 (HeLa): 44.9 µM (active)

CCOc1ccc(N=Nc2ccc(O)c3ncccc23)cc1
EC50 [8]: 1.11 µM (active)
EC50 [4]: 8.06 µM (active)
EC50 (Streptococcus): 1.45 µM (active)
EC50 [9]: > 150 µM (inconclusive)
EC50 [10]: > 180 µM (inactive)
EC50 [5]: 0.65 µM (active)
EC50 [11]: > 150 µM (inactive)
EC50 [12]: 0.19 µM (active)

Cc1ccc(Nc2cc(C)nc(-c3ccccc3)n2)cc1
AC50 (HeLa): 36.7 µM (active)

CC1=NC(C)(C)Cc2cc(C)c(C)cc21
IC50 [3]: 13.2 µM (active)

O=C(c1ccccc1)N1N=C(c2cccs2)CC1c1ccccc1O (centres undefined)
IC50 [1]: 2.72 µM (active)

Cn1c(=O)oc2cc(S(=O)(=O)NCCC(=O)N3CC=C(c4ccccc4)CC3)ccc21
AC50 (Cytochrome P450 2C9): inconclusive
AC50 (Cytochrome P450 1A2): 31.6 µM (inconclusive)

O=C(NC1CC1)c1sc2cc(Cl)ccc2c1Cl
AC50 (HeLa): 69.3 µM (active)

COc1ccc(OC)c(NC(=O)CSCc2cnn(-c3ccccc3)c2-n2cccc2)c1
AC50 (Cytochrome P450 2C9): inconclusive
AC50 (Cytochrome P450 1A2): 25.1 µM (inconclusive)
EC50 [13]: 4.18 µM (active)

COc1ccc2c(c1)CCc1c(C(=O)NCC(C)C)noc1-2
AC50 (HeLa): 55.1 µM (active)

Cc1ccc(-n2cc(CN3CCN(Cc4nccn4C)CC3)c(-c3ccc(F)cc3)n2)cc1
IC50 [3]: 10.1 µM (active)

CCCC(=O)Nc1cccc(NC(=O)c2ccc([N+](=O)[O-])cc2Cl)c1
IC50 [3]: 15.1 µM (active)

CCOCCCN1C(=O)CN(C2CCCCCC2)C(=O)C1c1ccc(OC)cc1 (centres undefined)
AC50 (Cytochrome P450 2C9): inconclusive
AC50 (Cytochrome P450 2C19): 25.1 µM (inconclusive)

Cc1cc(O)c2cc(Cl)ccc2n1
AC50 (Cytochrome P450 2C9): inconclusive
